Target: Amyloid-beta precursor protein (Homo sapiens) (UniProt P05067)
Assay: Binding affinity to amyloid beta (1 to 40 residues) (unknown origin) aggregation assessed as fold increase in fluorescence intensity

Amyloid-beta precursor protein (Homo sapiens), sequence (P05067 whole entry, the tested form may be a part): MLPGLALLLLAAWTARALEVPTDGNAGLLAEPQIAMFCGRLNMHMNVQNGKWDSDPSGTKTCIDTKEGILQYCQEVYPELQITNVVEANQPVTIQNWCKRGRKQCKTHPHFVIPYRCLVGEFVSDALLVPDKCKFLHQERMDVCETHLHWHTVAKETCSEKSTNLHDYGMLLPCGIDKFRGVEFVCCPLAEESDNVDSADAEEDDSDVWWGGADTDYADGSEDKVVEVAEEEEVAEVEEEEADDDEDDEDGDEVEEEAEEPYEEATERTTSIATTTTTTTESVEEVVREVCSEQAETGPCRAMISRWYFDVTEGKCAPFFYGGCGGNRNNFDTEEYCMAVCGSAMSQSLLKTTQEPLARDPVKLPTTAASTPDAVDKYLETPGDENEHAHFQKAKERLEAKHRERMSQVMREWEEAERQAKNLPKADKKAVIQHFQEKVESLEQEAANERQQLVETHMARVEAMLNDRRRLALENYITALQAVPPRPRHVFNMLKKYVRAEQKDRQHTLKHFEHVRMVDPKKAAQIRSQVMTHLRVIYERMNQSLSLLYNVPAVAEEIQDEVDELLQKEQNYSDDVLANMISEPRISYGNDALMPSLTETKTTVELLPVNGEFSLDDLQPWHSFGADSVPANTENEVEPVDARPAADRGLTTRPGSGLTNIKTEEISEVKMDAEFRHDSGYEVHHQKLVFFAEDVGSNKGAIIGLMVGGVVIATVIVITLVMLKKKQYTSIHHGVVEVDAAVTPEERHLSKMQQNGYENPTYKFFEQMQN

fold change (FC): 70
SMILES: CN(C)c1ccc(/C=C/C2=CC(/C=C/c3ccc(N(C)C)cc3)=[O+][B-](F)(F)O2)cc1

Source: ChEMBL document CHEMBL5321238, “Small-molecule theranostics in Alzheimer's disease” (Eur J Med Chem, 2023)
